{"source": "ChEMBL document CHEMBL4359906", "about": "“Design and synthesis of new N-terminal fatty acid modified-antimicrobial peptide analogues with potent in vitro biological activity” (Eur J Med Chem, 2019)", "key": {"Escherichia coli [1]": {"tested_on": "Escherichia coli", "assay": "Antibacterial activity against Escherichia coli ATCC 25922 after 18 hrs by CLSI based broth microdilution method", "assay_type": "functional", "settings": "ATCC 25922, 18 h"}, "Escherichia coli [2]": {"tested_on": "Escherichia coli", "assay": "Antibacterial activity against Escherichia coli ATCC 25922 after 18 hrs in presence of NaCl by CLSI based broth microdilution method (reference value: 4 microM)", "assay_type": "functional", "settings": "ATCC 25922, 18 h"}, "Escherichia coli [3]": {"tested_on": "Escherichia coli", "assay": "Ratio of antibacterial activity against Escherichia coli ATCC 25922 in presence of KCl to antibacterial activity against Escherichia coli ATCC 25922", "assay_type": "functional"}, "Staphylococcus aureus [4]": {"tested_on": "Staphylococcus aureus", "assay": "Antibacterial activity against Staphylococcus aureus ATCC 25923 after 18 hrs in presence of KCl by CLSI based broth microdilution method (reference value: 16 microM)", "assay_type": "functional", "settings": "ATCC 25923, 18 h"}, "Staphylococcus aureus [5]": {"tested_on": "Staphylococcus aureus", "assay": "Antibacterial activity against Staphylococcus aureus ATCC 25923 after 18 hrs in presence of FeCl3 by CLSI based broth microdilution method (reference value: 16 microM)", "assay_type": "functional", "settings": "ATCC 25923, 18 h"}, "Escherichia coli [6]": {"tested_on": "Escherichia coli", "assay": "Ratio of antibacterial activity against Escherichia coli ATCC 25922 in presence of FeCl3 to antibacterial activity against Escherichia coli ATCC 25922", "assay_type": "functional"}, "Staphylococcus aureus [7]": {"tested_on": "Staphylococcus aureus", "assay": "Antibiofilm activity against Staphylococcus aureus ATCC 25923 at 1 to 2 times of MIC after 24 hrs by crystal violet staining based assay", "assay_type": "functional, organism-based"}, "Escherichia coli [8]": {"tested_on": "Escherichia coli", "assay": "Antibiofilm activity against Escherichia coli ATCC 25922 assessed as reduction in biofilm inhibition at MIC after 24 hrs by crystal violet staining based assay relative to control", "assay_type": "functional"}, "[9]": {"assay": "Hemolytic activity in human RBC at 256 uM measured after 1 hr by microplate reader analysis relative to control", "assay_type": "ADME, cell-based, Erythrocyte", "settings": "human red blood cells (erythrocytes), read-out: Activity"}, "Staphylococcus aureus [10]": {"tested_on": "Staphylococcus aureus", "assay": "Antibacterial activity against Staphylococcus aureus ATCC 25923 after 18 hrs by CLSI based broth microdilution method", "assay_type": "functional", "settings": "ATCC 25923, 18 h"}, "Escherichia coli [11]": {"tested_on": "Escherichia coli", "assay": "Antimicrobial activity against Escherichia coli ATCC 25922 preincubated for 6 hrs in presence of 10% mouse serum and measured after 18 hrs by CLSI-based broth microdilution assay (reference value: 4 microM)", "assay_type": "functional"}, "Escherichia coli [12]": {"tested_on": "Escherichia coli", "assay": "Disruption of membrane integrity in Escherichia coli ATCC 25922 assessed as membrane damage by measuring PI fluorescence incubated for 1 hr by PI dye based flow cytometric analysis", "assay_type": "functional, organism-based"}}, "note": "Calls of active or inactive are those of the source. The calls are words filed in the database; no cut-off is given here.", "data": [{"smiles": "CCCCCCCC(=O)NC(Cc1cn(CCCC[C@H](NC(C)=O)C(=O)NCC(=O)N[C@@H](CC(C)C)C(=O)N[C@@H](CC(C)C)C(=O)N[C@H](CCCCN)C(=O)N[C@@H](CCCNC(=N)N)C(=O)N[C@H](C(=O)N[C@H](CCCCN)C(=O)N[C@H](C(=O)N[C@@H](CC(C)C)C(=O)N[C@@H](CC(C)C)C(N)=O)[C@@H](C)O)[C@@H](C)CC)nn1)C(=O)NCC(=O)N[C@@H](CC(C)C)C(=O)N[C@@H](CC(C)C)C(=O)N[C@H](CCCCN)C(=O)N[C@@H](CCCNC(=N)N)C(=O)N[C@H](C(=O)N[C@H](CCCCN)C(=O)N[C@H](C(=O)N[C@@H](CC(C)C)C(=O)N[C@@H](CC(C)C)C(N)=O)[C@@H](C)O)[C@@H](C)CC", "note": "(some centres not stated)", "values": [{"measurement": "MIC", "setting": "Escherichia coli [1]", "value": 4, "unit": "µM"}, {"measurement": "MIC", "setting": "Escherichia coli [2]", "value": 8, "unit": "µM"}, {"measurement": "Ratio", "setting": "Escherichia coli [3]", "value": "2 - 4"}, {"measurement": "MIC", "setting": "Staphylococcus aureus [4]", "value": 16, "unit": "µM"}, {"measurement": "MIC", "setting": "Staphylococcus aureus [5]", "value": 8, "unit": "µM"}, {"measurement": "Ratio", "setting": "Escherichia coli [6]", "value": "2 - 4"}, {"measurement": "inhibition", "setting": "Staphylococcus aureus [7]", "value": "Active"}, {"measurement": "inhibition (INH)", "setting": "Escherichia coli [8]", "value": ">50", "unit": "%"}, {"measurement": "hemolysis at 1 h, 256 µM", "setting": "[9]", "value": "< 5", "unit": "%"}, {"measurement": "MIC", "setting": "Staphylococcus aureus [10]", "value": 16, "unit": "µM"}, {"measurement": "MIC", "setting": "Escherichia coli [11]", "value": 16, "unit": "µM"}, {"measurement": "Activity", "setting": "Escherichia coli [12]", "value": "Dose-dependent effect"}]}]}
